# From the supplement of paper PMC4862054
# Key:
# Conditions in all cases: incubation time: 72 h
# [1] = test system: MDA-MB-231; experiment: normalised response (% of control), CellTox Green; higher = less cell death (100 = DMSO, 0 = benzethonium chloride kill control)
# Outline: (§1)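 Two readouts were taken after 72 h: CellTox Green fluorescence (485/520 nm) first, then CellTiter-Glo luminescence after 10 min at room temperature. Breast cancer cell lines had been seeded as 20 µl suspension into 384-well plates holding compound at 5 concentrations in 10-fold steps across a compound-specific 10,000-fold range. Each value is a normalised signal at a single concentration, with plates scaled to 0.1 % DMSO (100) and a positive kill control (0).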
# [2] = test system: CAL-120; experiment: as above
# Outline: as §1
# [3] = test system: HDQ-P1; experiment: as above
# Outline: as §1
# [4] = test system: BT-549; experiment: as above
# Outline: as §1
# [5] = test system: MDA-MB-453; experiment: as above
# Outline: as §1
# [6] = test system: CAL-85-1; experiment: as above
# Outline: as §1
# [7] = test system: HCC1143; experiment: as above
# Outline: as §1
# [8] = test system: CAL-148; experiment: as above
# Outline: as §1
# [9] = test system: MFM-223; experiment: as above
# Outline: as §1
# [10] = test system: Hs578T; experiment: as above
# Outline: as §1
# [11] = test system: MDA-MB-436; experiment: as above
# Outline: as §1
# [12] = test system: BT-474; experiment: as above
# Outline: as §1
# [13] = test system: MDA-MB-468; experiment: as above
# Outline: as §1
# [14] = test system: HCC1937; experiment: as above
# Outline: as §1
# [15] = test system: HCC1599; experiment: as above
# Outline: as §1
# [16] = test system: CAL-51; experiment: as above
# Outline: as §1
# [17] = test system: DU-4475; experiment: as above
# Outline: as §1
# [18] = test system: SK-BR-3; experiment: normalised response (% of control), CellTiter-Glo; higher = more viable cells (100 = DMSO, 0 = benzethonium chloride kill control)
# Outline: as §1
# [19] = test system: MCF-10A; experiment: as above
# Outline: as §1
# [20] = test system: MDA-MB-231; experiment: as above
# Outline: as §1
# [21] = test system: CAL-120; experiment: as above
# Outline: as §1
# [22] = test system: HDQ-P1; experiment: as above
# Outline: as §1
# [23] = test system: BT-549; experiment: as above
# Outline: as §1
# [24] = test system: MDA-MB-453; experiment: as above
# Outline: as §1
# [25] = test system: CAL-85-1; experiment: as above
# Outline: as §1
# [26] = test system: HCC1143; experiment: as above
# Outline: as §1
# [27] = test system: CAL-148; experiment: as above
# Outline: as §1
# [28] = test system: MFM-223; experiment: as above
# Outline: as §1
# [29] = test system: Hs578T; experiment: as above
# Outline: as §1
# [30] = test system: MDA-MB-436; experiment: as above
# Outline: as §1
# [31] = test system: BT-474; experiment: as above
# Outline: as §1
# [32] = test system: MDA-MB-468; experiment: as above
# Outline: as §1
# [33] = test system: HCC1937; experiment: as above
# Outline: as §1
# [34] = test system: HCC1599; experiment: as above
# Outline: as §1
# [35] = test system: CAL-51; experiment: as above
# Outline: as §1
# [36] = test system: DU-4475; experiment: as above
# Outline: as §1
# [37] = test system: MCF-10A; experiment: normalised response (% of control), CellTox Green; higher = less cell death (100 = DMSO, 0 = benzethonium chloride kill control)
# Outline: as §1
Compound,normalised response [1] [%],normalised response [2] [%],normalised response [3] [%],normalised response [4] [%],normalised response [5] [%],normalised response [6] [%],normalised response [7] [%],normalised response [8] [%],normalised response [9] [%],normalised response [10] [%],normalised response [11] [%],normalised response [12] [%],normalised response [13] [%],normalised response [14] [%],normalised response [15] [%],normalised response [16] [%],normalised response [17] [%],normalised response [18] [%],normalised response [19] [%],normalised response [20] [%],normalised response [21] [%],normalised response [22] [%],normalised response [23] [%],normalised response [24] [%],normalised response [25] [%],normalised response [26] [%],normalised response [27] [%],normalised response [28] [%],normalised response [29] [%],normalised response [30] [%],normalised response [31] [%],normalised response [32] [%],normalised response [33] [%],normalised response [34] [%],normalised response [35] [%],normalised response [36] [%],normalised response [37] [%]
Nc1ncnc2c1c(COc1cccc(Cl)c1)nn2C1CCOCC1 (1000 nM),115,103,114,96.5,110,108,119,105,103,104,107,98.3,99.3,124,74.4,118,108,107,104,104,111,107,88.6,103,93.4,104,102,104,97.1,106,104,96.6,103,113,105,102,–
COc1ccc(-c2ccc3c(N4CCOC[C@@H]4C)nc(N4CCOC[C@@H]4C)nc3n2)cc1CO [AZD8055] (1000 nM),87.4,96,103,116,104,87.8,74.1,39.6,93.6,102,92.4,86.1,118,56.8,94.2,80.1,83.3,20.3,27.8,36.5,18,32.3,21.5,31.3,25.3,24.2,13.9,27.6,29.4,45.8,46.6,23.6,45.7,67.2,20.3,23.2,91.7
C[C@]12CC[C@H](O)CC1=CC[C@@H]1[C@@H]2CC[C@]2(C)C(c3cccnc3)=CC[C@@H]12 [Abiraterone] (500 nM),127,99.1,108,135,104,96,104,94.8,104,114,88.8,103,92,123,110,101,101,103,112,105,97.1,99.2,99.1,99.3,104,98.8,105,101,106,96,90.7,98,98.7,107,65.6,105,102
CC(C)(C#N)c1cc(Cn2cncn2)cc(C(C)(C)C#N)c1 [Anastrozole] (1000 nM),104,101,111,106,96.5,110,61.9,93.9,101,62.7,103,99.8,85.1,106,102,113,100,108,105,106,96.7,96.5,99.2,96.9,103,101,93.3,105,103,100,104,106,94.5,123,122,98.2,105
CC(C)c1c(C(=O)Nc2ccccc2)c(-c2ccccc2)c(-c2ccc(F)cc2)n1CC[C@@H](O)C[C@@H](O)CC(=O)O [Atorvastatin] (1000 nM),34,98.2,103,97.4,94.1,110,114,103,89.4,97.4,96.6,99.9,87.3,88.3,100,–,101,102,84,59.1,90.5,74.8,95.6,99.4,91.9,93.4,105,99.1,101,92.6,66.1,93.2,96.6,95.6,90.2,99.9,83.6
O=C(O)CCCc1ccc(N(CCCl)CCCl)cc1 [Chlorambucil] (1000 nM),103,98.5,103,115,100,110,98.2,104,95.5,108,93.3,98.2,103,85.3,96.9,113,102,101,102,99.8,94.7,97.4,111,102,103,100,95.5,103,105,103,96.7,101,95,91.9,108,105,–
Cn1c(=O)n(-c2ccc(C(C)(C)C#N)cc2)c2c3cc(-c4cnc5ccccc5c4)ccc3ncc21 [Dactolisib] (100 nM),108,89.3,109,134,98,94.4,109,72.8,99.3,108,110,104,134,65,103,104,94.5,30,45.2,50.4,29.1,52.7,23.8,38.8,39.9,45.5,30.4,39.1,35.2,62,62.1,39,57.3,80.4,31.7,41,108
CNNCc1ccc(C(=O)NC(C)C)cc1 [Procarbazine] (1000 nM),104,106,104,107,70.8,95.4,123,104,–,101,98,101,84,105,95,103,104,110,105,107,102,103,98.7,100,102,104,104,101,109,104,98.1,105,105,101,78.5,94.8,107
O=C1NC(=O)[C@@H](c2cn3c4c(cccc24)CCC3)[C@@H]1c1c[nH]c2ccccc12 [Tivantinib] (100 nM),110,97.9,–,106,104,93.4,60.7,–,89.4,75,91.5,94.2,116,100,85.6,103,98.7,92,97.7,99.2,103,105,92.4,77.3,89.5,93.9,96.9,99,94.6,98,106,96.1,94.6,127,115,96.5,113
